Source: patent US5486595A, “Tumor necrosis factor inhibitors” (Centecor, Inc., priority 1994, dated 1996)
Where a SMILES comes first, the peptide text is derived from it.

The molecules below were run against T1, human TNFα (Homo sapiens, UniProt P01375) (assay: p55 Receptor/IgG Fusion Protein Binding Assay (inhibition of TNFα capture by p55-Ig coated plate)). Settings: peptide 1 mM; TNFα 25 ng/ml.
T1 construct: purchased Biosource, Camarillo, Calif
Procedure: This assay was designed to identify peptides which bind to human TNFα and thereby prevent the capture of the TNFα by a microtiter plate coated with p55-Ig fusion protein. A constant concentration of human TNFα is preincubated with the test peptide and then incubated on the p55-Ig coated microtiter wells. Bound TNFα is detected using a specific antisera and an alkaline phosphatase-conjugated probe.
A 96-well, U-bottom polyvinylchloride microtiter plate was coated with 50 μl/well of p55-Ig fusion protein at 5 μg/ml in 0.01M sodium phosphate, 0.15M sodium chloride (PBS) by incubation overnight at 4° C. or 2 hours at 37° C. The fusion protein, which consists of a p55 TNF receptor protein portion and an IgG portion, can be produced as disclosed in U.S. application Ser. No. 08/010,406 filed Jan. 29, 1993 which is incorporated herein by reference. The plate was washed three times with 0.05% Tween-20 in PBS, then blocked, by adding 150 μl/well of assay buffer (10 mM N-2-hydroxyethylpiperazine-N'-[…] (HEPES) pH 7.2, containing 0.1% porcine gelatin, 0.1% Tween-80, and 0.01% sodium azide) and continuing incubation for 1 hour at 37° C. or at 4° C. for 1-7 days.
Lyophilized peptides to be tested were weighed in tared 12×75 mm polystyrene tubes and reconstituted to a concentration of 1.2 mM with assay buffer. Each suspension was sonicated in a water bath for 1-5 minutes and vortexed 15-30 seconds to disperse large particles. Serial dilutions of each peptide suspension were prepared using assay buffer in a 96-well polystyrene microtiter plate. Additional wells received Fab fragment of the mouse/human monoclonal anti-human TNFα antibody cA2 (positive control) or assay buffer (negative control). […] The polystyrene dilution plate was then sealed and incubated 1 hour at room temperature on an orbital mixer set at moderate speed.
Following the sample preincubation, blocker was discarded from the p55-Ig coated plate and blotted dry. Aliquots (50 μl) of each peptide or control were transferred into duplicate wells on the p55-Ig coated plate which was then sealed and incubated i hour at 37° C. Duplicate wells containing only assay buffer were included as a plate blank. After incubation the p55-Ig plate was washed three times with 0.05% Tween-20 in PBS.
To detect TNFα captured by the p55-Ig plate, all wells were incubated in succession with polyclonal rabbit anti-human TNFα (Genzyme, Boston, Mass.; 1:500 in assay buffer, 50 μl/well), biotinylated goat anti-rabbit Ig (H&L) (Vector Laboratories, Burlingame, Calif.; 1 μg/ml in assay buffer, 50 μl/well) and streptavidin-alkaline phosphatase conjugate (Pierce, Rockford, Ill.; 1 μg/ml in assay buffer, 50 μl/well). All incubations were for 1 hour at 37° C. and after each incubation the plate was washed three times with 0.05% Tween-20 in PBS. Fifty microliters of alkaline phosphatase substrate solution (alkaline buffer (Sigma, St. Louis, Mo.) diluted 1:500 in deionized water plus one 5 mg tablet of p-nitrophenyl phosphate (Sigma, St. Louis, Mo.) per 5 ml of diluted buffer) was added to all wells and incubation continued for 20 minutes at room temperature. Color development was stopped by adding to all wells 50 μl of 3N sodium hydroxide. The optical density (OD) at 405 nm was measured on a microtiter plate reader (Molecular Devices Vmax plate reader), with the plate blank wells subtracted as background. The activity of each peptide was then expressed as the percent inhibition of TNFα capture by the p55-Ig plate, relative to the amount of TNFα captured in wells containing only assay buffer (negative control), as follows: % inhibition=100-((mean OD peptide/mean OD negative control)×100).
The inhibition of binding of TNFα to p55TNFr-IgG chimeric construct was performed as described above using several embodiments of the invention. The peptides were tested at a concentration of 1 mM.

T1 sequence (P01375 77-233 limits assumed): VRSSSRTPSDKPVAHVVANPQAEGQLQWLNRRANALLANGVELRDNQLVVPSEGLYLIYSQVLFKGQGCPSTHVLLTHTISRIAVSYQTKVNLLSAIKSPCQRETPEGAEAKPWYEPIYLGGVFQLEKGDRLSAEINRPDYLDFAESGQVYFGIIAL

First: SEQ ID NO:39: peptide of the invention that inhibits TNFα; sequence not printed (LWNWVPEALSAGSRA)
Second: SEQ ID NO:47: peptide of the invention that inhibits TNFα; sequence not printed (TSSTDIARPHQIANV)
The “inhibition of binding of TNFα to p55TNFr-IgG chimeric construct” value of the first is higher: 42% for the first, 29% for the second.

“SEQ ID NO:43: peptide of the invention that inhibits TNFα; sequence not printed (PGWYAALSKQEGARL)” was tested, and the “inhibition of binding of TNFα to p55TNFr-IgG chimeric construct” value was 37%.

Same assay, conditions: peptide 1 mM; TNFα 25 ng/ml; read-out: inhibition of binding of TNFα to p55TNFr-IgG chimeric construct

Going from `CC(=O)N[C@@H](CCC(N)=O)C(=O)N[C@@H](Cc1ccc(O)cc1)C(=O)N[C@@H](CCCNC(=N)N)C(=O)N[C@@H](Cc1c[nH]cn1)C(=O)N[C@@H](Cc1ccc(O)cc1)C(=O)N[C@@H](Cc1c[nH]c2ccccc12)C(=O)N[C@@H](CO)C(=O)N[C@@H](CCC(=O)O)C(=O)N[C@@H](CC(N)=O)C(=O)N[C@@H](CC(C)C)C(=O)N[C@@H](Cc1ccccc1)C(=O)N[C@@H](CCC(N)=O)C(=O)N[C@@H](C)C(=O)N[C@@H](Cc1ccccc1)C(=O)N[C@@H](CC(N)=O)C(N)=O` [SEQ ID NO:11, Acetyl-glutaminyl-tyrosyl-arginyl-histidyl-tyrosyl-tryptophyl-seryl-glutamyl-asparaginyl-leucyl-phenylalanyl-glutaminyl-alanyl-phenylalanyl-asparagineAmide] to `CSCC[C@H](NC(=O)[C@H](CCC(N)=O)NC(=O)[C@H](C)NC(=O)[C@@H](NC(=O)[C@H](CCC(N)=O)NC(=O)[C@H](CC(=O)O)NC(=O)[C@H](Cc1ccc(O)cc1)NC(=O)[C@H](Cc1ccc(O)cc1)NC(=O)[C@H](CCC(=O)O)NC(=O)[C@H](CCCNC(=N)N)NC(=O)[C@H](CC(C)C)NC(=O)[C@@H](N)CCCNC(=N)N)[C@@H](C)O)C(=O)N[C@@H](C)C(=O)N[C@@H](C)C(=O)N[C@@H](CO)C(N)=O` [SEQ ID NO:29] (H-RLREYYDQTAQMAAS-NH2), the inhibition at 1000 µM rises from 27% to 53%.

`CC(C)C[C@H](NC(=O)[C@H](Cc1ccccc1)NC(=O)[C@H](CO)NC(=O)[C@@H](NC(=O)[C@H](CO)NC(=O)[C@@H]1CCCN1C(=O)[C@H](C)NC(=O)[C@@H](NC(=O)[C@H](CO)NC(=O)[C@@H]1CCCN1C(=O)[C@H](CCC(=O)O)NC(=O)[C@@H]1CCCN1C(=O)[C@@H](N)[C@@H](C)O)[C@@H](C)O)[C@@H](C)O)C(=O)N[C@@H](CC(C)C)C(=O)N1CCC[C@H]1C(N)=O` [SEQ ID NO:60] (H-TPEPSTAPSTSFLLP-NH2) and `C[C@H](NC(=O)[C@@H](NC(=O)[C@H](CO)NC(=O)[C@@H]1CCCN1C(=O)[C@H](CCC(=O)O)NC(=O)[C@@H]1CCCN1C(=O)[C@@H](NC(=O)[C@@H]1CCCN1C(=O)[C@H](CCC(N)=O)NC(=O)[C@@H](N)[C@@H](C)O)[C@@H](C)O)[C@@H](C)O)C(=O)N1CCC[C@H]1C(=O)N[C@@H](CO)C(=O)N[C@H](C(=O)N[C@@H](CO)C(=O)N[C@@H](Cc1ccccc1)C(N)=O)[C@@H](C)O` [SEQ ID NO:59] (H-TQPTPEPSTAPSTSF-NH2) are the same in inhibition at 1000 µM: 73% for the first, 73% for the second.

`C[C@H](NC(=O)[C@@H](NC(=O)[C@H](CO)NC(=O)[C@@H]1CCCN1C(=O)[C@H](CCC(=O)O)NC(=O)[C@@H]1CCCN1C(=O)[C@@H](NC(=O)[C@@H]1CCCN1C(=O)[C@H](CCC(N)=O)NC(=O)[C@@H](NC(=O)[C@H](Cc1c[nH]cn1)NC(=O)[C@H](CCC(N)=O)NC(=O)[C@@H](N)CO)[C@@H](C)O)[C@@H](C)O)[C@@H](C)O)C(=O)N1CCC[C@H]1C(=O)N[C@@H](CO)C(N)=O` [SEQ ID NO:58] (H-SQHTQPTPEPSTAPS-NH2) and `C[C@@H](O)[C@H](NC(=O)[C@H](CO)NC(=O)[C@@H]1CCCN1C(=O)[C@H](CCC(=O)O)NC(=O)[C@@H]1CCCN1C(=O)[C@@H](NC(=O)[C@@H]1CCCN1C(=O)[C@H](CCC(N)=O)NC(=O)[C@@H](NC(=O)[C@H](Cc1c[nH]cn1)NC(=O)[C@H](CCC(N)=O)NC(=O)[C@H](CO)NC(=O)[C@H](CCCNC(=N)N)NC(=O)[C@@H](NC(=O)[C@@H](N)CO)[C@@H](C)O)[C@@H](C)O)[C@@H](C)O)C(N)=O` [SEQ ID NO:57] (H-STRSQHTQPTPEPST-NH2) are the same in inhibition at 1000 µM: 72% for the first, 72% for the second.

Compared with `CSCC[C@H](NC(=O)[C@H](CO)NC(=O)[C@H](CCCNC(=N)N)NC(=O)[C@@H](NC(=O)[C@@H]1CCCN1C(=O)[C@H](CO)NC(=O)[C@@H](NC(=O)[C@H](CO)NC(=O)[C@@H](NC(=O)[C@H](C)N)[C@@H](C)O)[C@@H](C)O)[C@@H](C)O)C(=O)N[C@@H](C)C(=O)N1CCC[C@H]1C(=O)NCC(=O)N[C@@H](C)C(=O)N[C@H](C(N)=O)C(C)C` [SEQ ID NO:54] (H-ATSTSPTRSMAPGAV-NH2), `CC(C)C[C@H](NC(=O)[C@@H](N)Cc1c[nH]cn1)C(=O)N1CCC[C@H]1C(=O)N[C@@H](CCC(N)=O)C(=O)N1CCC[C@H]1C(=O)N[C@H](C(=O)N[C@@H](CO)C(=O)N[C@H](C(=O)N[C@@H](CCCNC(=N)N)C(=O)N[C@@H](CO)C(=O)N[C@@H](CCC(N)=O)C(=O)N[C@@H](Cc1c[nH]cn1)C(=O)N[C@H](C(=O)N[C@@H](CCC(N)=O)C(=O)N1CCC[C@H]1C(N)=O)[C@@H](C)O)[C@@H](C)O)C(C)C` [SEQ ID NO:56] (H-HLPQPVSTRSQHTQP-NH2) is higher in inhibition at 1000 µM: 52% for the first, 67% for the second.

Compared with `CSCC[C@H](NC(=O)[C@H](CCC(N)=O)NC(=O)[C@H](C)NC(=O)[C@@H](NC(=O)[C@H](CCC(N)=O)NC(=O)[C@H](CC(=O)O)NC(=O)[C@H](Cc1ccc(O)cc1)NC(=O)[C@H](Cc1ccc(O)cc1)NC(=O)[C@H](CCC(=O)O)NC(=O)[C@H](CCCNC(=N)N)NC(=O)[C@H](CC(C)C)NC(=O)[C@H](CCCNC(=N)N)NC(=O)[C@H](C)NC(=O)[C@@H](NC(=O)[C@@H](N)CO)[C@@H](C)O)[C@@H](C)O)C(N)=O` [SEQ ID NO:28] (H-STARLREYYDQTAQM-NH2), `CC(C)C[C@H](NC(=O)[C@H](Cc1ccccc1)NC(=O)[C@H](Cc1ccccc1)NC(=O)CNC(=O)[C@H](C)NC(=O)[C@H](Cc1c[nH]cn1)NC(=O)[C@H](C)NC(=O)[C@@H](NC(=O)[C@H](C)NC(=O)[C@@H](NC(=O)[C@@H](NC(=O)[C@H](CC(N)=O)NC(=O)[C@H](CCC(N)=O)NC(=O)[C@H](CCCCN)NC(=O)[C@H](CCC(=O)O)NC(=O)[C@@H](N)CCC(N)=O)[C@@H](C)O)C(C)C)[C@@H](C)O)C(=O)N[C@@H](CCCNC(=N)N)C(=O)N[C@@H](CCC(=O)O)C(=O)N[C@@H](CC(N)=O)C(=O)N[C@@H](CCC(=O)O)C(N)=O` [SEQ ID NO:15, Glutaminyl-glutamyl-lysyl-glutaminyl-asparaginyl-threonyl-valyl-alanyl-threonyl-alanyl-histidyl-alanyl-glycyl-phenylalanyl-phenylalanyl-leucyl-arginyl-glutamyl-asparaginyl-glutamic Acid Amide] (H-QEKQNTVATAHAGFFLRENE-NH2) is lower in inhibition at 1000 µM: 72% for the first, 48% for the second.

For `CC[C@H](C)[C@H](NC(=O)[C@H](CCC(=O)O)NC(=O)[C@@H](NC(=O)[C@H](CCC(N)=O)NC(=O)CN)C(C)C)C(=O)N[C@@H](CO)C(=O)N[C@@H](CO)C(=O)N[C@@H](C)C(=O)N[C@H](C(=O)N[C@H](C(=O)N[C@@H](CC(=O)O)C(=O)N[C@@H](CCCNC(=N)N)C(=O)N[C@@H](CC(=O)O)C(=O)N[C@H](C(=O)N[C@H](C(N)=O)C(C)C)[C@@H](C)O)C(C)C)[C@@H](C)O` [SEQ ID NO:8] (H-GQVEISSATVDRDTV-NH2), the inhibition at 1000 µM was 56%.

Same assay, conditions: various concentrations of peptide

In the case of `CC(=O)N[C@@H](CCC(N)=O)C(=O)N[C@@H](Cc1ccc(O)cc1)C(=O)N[C@@H](CCCNC(=N)N)C(=O)N[C@@H](Cc1c[nH]cn1)C(=O)N[C@@H](Cc1ccc(O)cc1)C(=O)N[C@@H](Cc1c[nH]c2ccccc12)C(=O)N[C@@H](CO)C(=O)N[C@@H](CCC(=O)O)C(=O)N[C@@H](CC(N)=O)C(=O)N[C@@H](CC(C)C)C(=O)N[C@@H](Cc1ccccc1)C(=O)N[C@@H](CCC(N)=O)C(=O)N[C@@H](C)C(=O)N[C@@H](Cc1ccccc1)C(=O)N[C@@H](CC(N)=O)C(N)=O` [SEQ ID NO:11, Acetyl-glutaminyl-tyrosyl-arginyl-histidyl-tyrosyl-tryptophyl-seryl-glutamyl-asparaginyl-leucyl-phenylalanyl-glutaminyl-alanyl-phenylalanyl-asparagineAmide], the “dose dependent inhibition of TNFα (FIG. 1)” value is reported as “dose dependent inhibition”.
